# Target: TNFα trimer (Homo sapiens, UniProt P01375)
# Assay: TNFα FP Competitive Binding Assay
# Settings: FP binding assay; 20 nM TNFα trimer, 1 nM OregonGreen488 probe; read-out: TNF IC50
# Outline: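 Compounds in 12-point 1:3 series, final top 100 μM (2.0% DMSO) or 338 μM (3.4% DMSO), displace 1 nM fluorescent probe from 20 nM TNFα trimer. After 18-24 h incubation plus 1 h rt equilibration, background-subtracted polarization measured and curves fitted with variable slope.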
# Sequence of TNFα trimer (P01375 77-233 limits assumed): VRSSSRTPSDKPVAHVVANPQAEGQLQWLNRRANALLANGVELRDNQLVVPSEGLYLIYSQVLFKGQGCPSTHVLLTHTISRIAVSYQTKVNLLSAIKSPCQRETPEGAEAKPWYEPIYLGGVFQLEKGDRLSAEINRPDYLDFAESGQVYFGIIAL
row,Structure (SMILES),IC50 [nM]
1,CC(=O)N1CCN(c2ncc(-c3ccc4c(=O)n(C)n(Cc5cc(CC#N)ccc5OC(F)F)c4c3)cn2)C[C@H]1C [Example 27.3],< 1000
2,CC(=O)N1CCN(c2ncc(-c3ccc4c(=O)n(C)n(Cc5cc(CC(C)C#N)ccc5OC(F)F)c4c3)cn2)C[C@H]1C (some centres unmarked) [Example 27.4],1000 to 10000
3,CC(=O)N1CCN(c2ncc(-c3ccc4c(=O)n(C)n(Cc5c[nH]cc5C(F)(F)F)c4c3)cn2)C[C@H]1C [Example 27.5],< 1000
4,CC(=O)N1CCN(c2ncc(-c3ccc4c(=O)n(Cc5ccncc5)n(Cc5ccccc5OC(F)F)c4c3)cn2)C[C@H]1C [Example 27.6],1000 to 10000
5,CC(=O)N1CCN(c2ncc(-c3ccc4c(=O)n(Cc5ccncc5)n(Cc5ccccc5Cl)c4c3)cn2)C[C@H]1C [Example 27.7],1000 to 10000
6,"CC(c1c(F)cccc1F)n1c2cc(-c3cnc(N4CCN(C(=O)CO)[C@H](C)C4)nc3)ccc2c(=O)n1C (stereo partly drawn) [Example 28.1, 1-(1-(2,6-Difluorophenyl)ethyl)-6-(2-((R)-4-(2-hydroxyacetyl)-3-methylpiperazin-1-yl)pyrimidin-5-yl)-2-methyl-1H-indazol-3(2H)-one]",< 1000
7,CC(c1ccccc1)n1c2cc(-c3cnc(N4CCN(C(=O)CO)[C@H](C)C4)nc3)ccc2c(=O)n1C (some centres unmarked) [Example 28.2],< 1000
8,CC(c1ccccc1F)n1c2cc(-c3cnc(N4CCN(C(=O)CO)[C@H](C)C4)nc3)ccc2c(=O)n1C (some centres unmarked) [Example 28.3],< 1000
9,CC(c1ccccc1Cl)n1c2cc(-c3cnc(N4CCN(C(=O)CO)[C@H](C)C4)nc3)ccc2c(=O)n1C (some centres unmarked) [Example 28.4],1000 to 10000
10,"Cn1c(=O)c2ccc(-c3cnc(N4CCN(C=O)CC4)nc3)cc2n1Cc1cc(CO)ccc1OC(F)F [Example 29, 4-(5-(1-(2-(Difluoromethoxy)-5-(hydroxymethyl)benzyl)-2-methyl-3-oxo-2,3-dihydro-1H-indazol-6-yl)pyrimidin-2-yl)piperazine-1-carbaldehyde]",< 1000
11,Cc1cnc(C(F)(F)F)c(Cn2c3cc(-c4cnc(N5CCN6C(=O)NC[C@H]6C5)nc4)ccc3c(=O)n2C)c1 [Example 29.1],1000 to 10000
12,Cn1c(=O)c2ccc(-c3cnc(N4CCN5C(=O)NC[C@H]5C4)nc3)cc2n1Cc1cccnc1C(F)(F)F [Example 29.2],1000 to 10000
13,Cc1ccc(C(F)(F)F)c(Cn2c3cc(-c4cnc(N5CCN6C(=O)NC[C@H]6C5)nc4)ccc3c(=O)n2C)c1 [Example 29.3],< 1000
14,Cn1c(=O)c2ccc(-c3cnc(N4CCN5C(=O)NC[C@H]5C4)nc3)cc2n1Cc1c(Cl)ccc2c1COC2 [Example 29.4],< 1000
15,Cn1c(=O)c2ccc(-c3cnc(N4CCN5C(=O)NC[C@H]5C4)nc3)cc2n1Cc1cc(Cl)ccc1C(F)(F)F [Example 29.5],< 1000
16,Cc1ccc(OC(F)F)c(Cn2c3cc(-c4cnc(N5CCN6C(=O)NC[C@H]6C5)nc4)ccc3c(=O)n2C)n1 [Example 29.6],1000 to 10000
17,C[C@@H]1CN(C(=O)CO)CCN1c1ncc(-c2c(F)cc3c(=O)n(C)n(Cc4ccccc4OC(F)F)c3c2F)cn1 [Example 30],< 1000
18,"CC(=O)N1CCC(O)(c2ncc(-c3ccc4c(=O)n(C)n(Cc5ccccc5OC(F)F)c4c3)cn2)CC1 [Example 32, 6-(2-(1-Acetyl-4-hydroxypiperidin-4-yl)pyrimidin-5-yl)-1-(2-(difluoromethoxy)benzyl)-2-methyl-1H-indazol-3(2H)-one]",1000 to 10000

row,Structure (SMILES),IC50 [nM]
1,"COCc1cccc(OC(F)F)c1Cn1c2cc(-c3cnc(N4CCN5C(=O)NC[C@@H]5C4)nc3)ccc2c(=O)n1C [Example 33, (R)-7-(5-(1-(2-(Difluoromethoxy)-6-(methoxymethyl)benzyl)-2-methyl-3-oxo-2,3-dihydro-1H-indazol-6-yl)pyrimidin-2-yl)hexahydroimidazo[1,5-a]pyrazin-3(2H)-one]",< 1000
2,"CN1C[C@H]2CN(c3ncc(-c4ccc5c(=O)n(C)n(Cc6ccccc6OC(F)F)c5c4)cn3)CCN2C1=O [Example 34, (R)-7-(5-(1-(2-(Difluoromethoxy)benzyl)-2-methyl-3-oxo-2,3-dihydro-1H-indazol-6-yl)pyrimidin-2-yl)-2-methylhexahydroimidazo[1,5-a]pyrazin-3(2H)-one]",< 1000
3,"Cn1c(=O)c2ccc(-c3cnc(N4CCN5C(=O)N(CCO)C[C@H]5C4)nc3)cc2n1Cc1ccccc1OC(F)F [Example 35, (R)-7-(5-(1-(2-(Difluoromethoxy)benzyl)-2-methyl-3-oxo-2,3-dihydro-1H-indazol-6-yl)pyrimidin-2-yl)-2-(2-hydroxyethyl)hexahydroimidazo[1,5-a]pyrazin-3(2H)-one]",< 1000
4,"Cc1ccc(OC(F)F)c(Cn2c3cc(-c4cnc(N5CCN(C(=O)CO)[C@@H](C)C5)nc4)ccc3c(=O)n2C)c1 [Example 36, (S)-1-(2-(Difluoromethoxy)-5-methylbenzyl)-6-(2-(4-(2-hydroxyacetyl)-3-methylpiperazin-1-yl)pyrimidin-5-yl)-2-methyl-1H-indazol-3(2H)-one]",< 1000
5,"Cc1ccc(C#N)c(Cn2c3cc(-c4cnc(N5CCN6C(=O)NC[C@H]6C5)nc4)ccc3c(=O)n2C)c1 [Example 37, (S)-4-Methyl-2-((2-methyl-3-oxo-6-(2-(3-oxohexahydroimidazo[1,5-a]pyrazin-7(1H)-yl)pyrimidin-5-yl)-2,3-dihydro-1H-indazol-1-yl)methyl)benzonitrile]",1000 to 10000
6,"C[C@@H]1CN(c2ncc(-c3ccc4c(=O)n(C)n(Cc5ccccc5OC(F)F)c4c3)cn2)CCN1C(=O)[C@@H]1COC(C)(C)O1 [Example 38* Step 1, 1-(2-(Difluoromethoxy)benzyl)-6-(2-((R)-4-((S)-2,2-dimethyl-1,3-dioxolane-4-carbonyl)-3-methylpiperazin-1-yl)pyrimidin-5-yl)-2-methyl-1H-indazol-3(2H)-one]",< 1000
7,"C[C@@H]1CN(c2ncc(-c3ccc4c(=O)n(C)n(Cc5ccccc5OC(F)F)c4c3)cn2)CCN1C(=O)[C@@H](O)CO [Example 38, 1-(2-(Difluoromethoxy)benzyl)-6-(2-((R)-4-((S)-2,3-dihydroxypropanoyl)-3-methylpiperazin-1-yl)pyrimidin-5-yl)-2-methyl-1H-indazol-3(2H)-one]",< 1000
8,"C[C@@H]1CN(c2ncc(-c3ccc4c(=O)n(C)n(Cc5ccccc5OC(F)F)c4c3)cn2)CCN1C(=O)[C@H](O)CO [Example 39, 1-(2-(Difluoromethoxy)benzyl)-6-(2-((R)-4-((R)-2,3-dihydroxypropanoyl)-3-methylpiperazin-1-yl)pyrimidin-5-yl)-2-methyl-1H-indazol-3(2H)-one]",< 1000
9,"Cn1c(=O)c2cc(F)c(-c3cnc(C(C)(C)O)nc3)cc2n1Cc1ccccc1OC(F)F [Example 40, 1-(2-(Difluoromethoxy)benzyl)-5-fluoro-6-(2-(2-hydroxypropan-2-yl)pyrimidin-5-yl)-2-methyl-1H-indazol-3(2H)-one]",1000 to 10000
10,"Cc1ccc(OC(F)F)c(Cn2c3cc(-c4cnc(N5CCN(S(C)(=O)=O)[C@@H](C)C5)nc4)ccc3c(=O)n2C)c1 [Example 41, (S)-1-(2-(Difluoromethoxy)-5-methylbenzyl)-2-methyl-6-(2-(3-methyl-4-(methylsulfonyl)piperazin-1-yl)pyrimidin-5-yl)-1H-indazol-3(2H)-one]",< 1000
11,"Cn1c(=O)c2ccc(-c3cnc(C(C)(C)O)nc3)cc2n1Cc1cc(NCc2ccccn2)ccc1Cl [Example 42, 1-(2-Chloro-5-((pyridin-2-ylmethyl)amino)benzyl)-6-(2-(2-hydroxypropan-2-yl)pyrimidin-5-yl)-2-methyl-1H-indazol-3(2H)-one]",1000 to 10000
12,Cn1c(=O)c2ccc(-c3cnc(C(C)(C)O)nc3)cc2n1Cc1cc(NCc2cc[nH]n2)ccc1Cl [Example 43],1000 to 10000
13,"Cn1c(=O)c2ccc(-c3cnc(C(C)(C)O)nc3)cc2n1Cc1cc(NC2CCCc3c[nH]nc32)ccc1Cl (centres unmarked) [Example 44, 1-(2-Chloro-5-((4,5,6,7-tetrahydro-1H-indazol-7-yl)amino)benzyl)-6-(2-(2-hydroxypropan-2-yl)pyrimidin-5-yl)-2-methyl-1H-indazol-3(2H)-one]",< 1000
14,"Cc1ccc(OC(F)F)c(Cn2c3c(F)c(-c4cnc(C(C)(C)O)nc4C)ccc3c(=O)n2C)c1 [Example 45, 1-(2-(Difluoromethoxy)-5-methylbenzyl)-7-fluoro-6-(2-(2-hydroxypropan-2-yl)-4-methylpyrimidin-5-yl)-2-methyl-1H-indazol-3(2H)-one]",< 1000
15,C[C@@H]1CN(c2ncc(-c3c(F)cc4c(=O)n(C)n(Cc5ccccc5OC(F)F)c4c3F)cn2)CCN1C(=O)CO [Example 46],< 1000
16,"COc1cc2c(=O)n(C)n(Cc3ccccc3OC(F)F)c2cc1-c1cnc(N2CCN(C(=O)CO)[C@H](C)C2)nc1 [Example 47, (R)-1-(2-(Difluoromethoxy)benzyl)-6-(2-(4-(2-hydroxyacetyl)-3-methylpiperazin-1-yl)pyrimidin-5-yl)-5-methoxy-2-methyl-1H-indazol-3(2H)-one]",1000 to 10000
17,"CC(=O)N1CCN(c2ncc(-c3ccc4c(=O)n(C)n(Cc5c(CO)cccc5OC(F)F)c4c3)cn2)C[C@H]1C [Example 48, (R)-6-(2-(4-Acetyl-3-methylpiperazin-1-yl)pyrimidin-5-yl)-1-(2-(difluoromethoxy)-6-(hydroxymethyl)benzyl)-2-methyl-1H-indazol-3(2H)-one]",< 1000
18,"CC(=O)N1CCN(c2ncc(-c3ccc4c(=O)n(C)n(Cc5c(CC#N)cccc5OC(F)F)c4c3)cn2)C[C@H]1C [Example 49, (R)-2-(2-((6-(2-(4-Acetyl-3-methylpiperazin-1-yl)pyrimidin-5-yl)-2-methyl-3-oxo-2,3-dihydro-1H-indazol-1-yl)methyl)-3-(difluoromethoxy)phenyl)acetonitrile]",< 1000

# Same assay, conditions: read-out: TNF IC50
row,Structure (SMILES),IC50 [nM]
1,C[C@H](O)CNc1ccc(Cl)c(Cn2c3cc(-c4cnc(C(C)(C)O)nc4)ccc3c(=O)n2C)c1 [Example 30.1],1000 to 10000
2,C[C@@H](O)CNc1ccc(Cl)c(Cn2c3cc(-c4cnc(C(C)(C)O)nc4)ccc3c(=O)n2C)c1 [Example 30.2],1000 to 10000

# From patent US10160748B2 (AbbVie Inc., priority 2015, dated 2018)
